Measured values reported in patent US7709548B2, “Method for manufacturing monosulfonium salt, cationic polymerization initiator, curable composition, and cured product” (San-Apro Limited, priority 2003, dated 2010).

Assay: Storage stability test (viscosity change of mixture with UVR-6110 stored at 80° C.)
Format: physicochemical
Conditions: measured at 25° C.; for Viscosity after storage for 1 week / Viscosity after storage for 2 weeks / Viscosity after storage for 4 weeks / Viscosity after storage for 6 weeks: stored at 80° C.
Protocol: As an acceleration test for storage stability, a mixture of the cationic polymerization initiator solution and a cationic polymerizable compound was evaluated by measuring its change in the viscosity when stored at a temperature of 80° C.
5 parts of a propylene carbonate solution of the cationic polymerization initiators used in each of Test Examples 5 and 9 was added to 100 parts UVR-6110 (the alicyclic epoxy resin, supra), and 200 g of this mixture was put in a 250 mL brown plastic bottle and stored in an 80° C. thermostat.
3 parts of a propylene carbonate solution of the cationic polymerization initiator used in each of Test Examples 12 and 15 were mixed with 100 parts UVR-6110, and 200 g of this mixture taken in a 250 ml brown plastic bottle and stored in an 80° C. thermostat.
The above-mentioned mixture was adjusted to 25° C. in a thermostatic tank that had been adjusted to 25° C., and the viscosity of the mixture was measured at the start of storage and after one, two, four, and six weeks.

[1] = 5 parts initiator solution per 100 parts UVR-6110
[2] = 3 parts initiator solution per 100 parts UVR-6110

| Compound | Viscosity after storage, At start [1] [mPa · s] | Viscosity after storage for 1 week [1] [mPa · s] | Viscosity after storage for 2 weeks [1] [mPa · s] | Viscosity after storage for 4 weeks [1] [mPa · s] | Viscosity after storage for 6 weeks [1] [mPa · s] | Viscosity after storage, At start [2] [mPa · s] | Viscosity after storage for 1 week [2] [mPa · s] | Viscosity after storage for 2 weeks [2] [mPa · s] | Viscosity after storage for 4 weeks [2] [mPa · s] | Viscosity after storage for 6 weeks [2] [mPa · s] |
| --- | --- | --- | --- | --- | --- | --- | --- | --- | --- | --- |
| F[P-](F)(F)(F)(F)F.c1ccc(Sc2ccc([S+](c3ccccc3)c3ccccc3)cc2)cc1 [Example 5, (4-phenylthiophenyl)diphenylsulfonium hexafluorophosphonate] | 480 | 480 | 480 | 500 | 500 |  |  |  |  |  |
| (4-phenylthiophenyl)diphenylsulfonium hexafluoroantimonate [Example 8] |  |  |  |  |  | 470 | 470 | 470 | 510 | 650 |
